What was measured:
[1] = tested on: LPS-induced NF-κB activity in THP1-Blue cells; assay: Inhibition of LPS-induced NF-κB transcriptional activity, alkaline phosphatase reporter, THP1-Blue cells; assay type: cell-based, human; conditions: for Inhibition of LPS-induced NF-κB activity (in words): THP1-Blue cells, 250 ng/mL LPS, 24 h; for IC50: LPS-induced NF-κB activity, human THP1-Blue cells, N.A. = no activity at 50 µM; for Observed class for inhibition of NF-κB activity: experimentally observed, Active or N.A.
Experimental: (§1) Our studies included 175 compounds that were previously synthesized and characterized at NEUROFARBA, Pharmaceutical and Nutraceutical Section, University of Florence, Italy. We previously evaluated the FPR1/FPR2 agonist activity of these compounds by evaluating their ability to induce Ca^2+ mobilization in FPR-transfected HL60 cells and human neutrophils. […] All test compounds were dissolved in DMSO at stock concentrations of 10 mM and stored at −20 °C. For primary screening assays (analysis of NF-κB activation, IL-6 production, and cytotoxicity), the following final concentrations of the compounds were used: 3.125, 6.25, 12.5, 25, and 50 µM; the final concentration of DMSO was 1% in all samples.
The activation of NF-κB was measured using an alkaline phosphatase reporter assay in human monocytic THP1-Blue cells stably transfected with a secreted embryonic alkaline phosphatase gene that is under the control of a promoter inducible by the NF-κB. The THP1-Blue cells (2 × 10^5 cells/well) were pretreated with the test compound or DMSO for 30 min, followed by an addition of 250 ng/mL LPS for 24 h. Alkaline phosphatase activity was determined in cell supernatants using a QUANTI-Blue mix (InvivoGen) and measured at 655 nm and compared with positive control samples (LPS).

FPR1 = target: T1, FPR1 (Homo sapiens, UniProt P21462); conditions: FPR1-transfected HL-60 cells; agonist activity from Table 1; read-out: Ca2+ Mobilization FPR1 EC50 in HL-60 Cells; cited from earlier work
T1 construct: expressed in transfected cells; host or cells: HL-60 cells (FPR1-HL60)
T1 sequence (P21462 1-350): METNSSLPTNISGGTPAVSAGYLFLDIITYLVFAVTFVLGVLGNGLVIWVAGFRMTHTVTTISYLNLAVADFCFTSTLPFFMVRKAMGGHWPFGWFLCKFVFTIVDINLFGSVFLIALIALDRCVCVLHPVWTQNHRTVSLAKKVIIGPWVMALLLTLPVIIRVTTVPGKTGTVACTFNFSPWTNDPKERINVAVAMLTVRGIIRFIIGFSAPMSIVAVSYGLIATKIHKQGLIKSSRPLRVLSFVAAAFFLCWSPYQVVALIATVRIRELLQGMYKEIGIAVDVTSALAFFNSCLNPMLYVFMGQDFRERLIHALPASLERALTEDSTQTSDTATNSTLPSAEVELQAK

FPR2 = target: T2, FPR2 (Homo sapiens, UniProt P25090); conditions: FPR2-transfected HL-60 cells; agonist activity from Table 1; read-out: Ca2+ Mobilization FPR2 EC50 in HL-60 Cells; cited from earlier work
T2 construct: expressed in transfected cells; host or cells: HL-60 cells (FPR2-HL60)
T2 sequence (P25090 1-351): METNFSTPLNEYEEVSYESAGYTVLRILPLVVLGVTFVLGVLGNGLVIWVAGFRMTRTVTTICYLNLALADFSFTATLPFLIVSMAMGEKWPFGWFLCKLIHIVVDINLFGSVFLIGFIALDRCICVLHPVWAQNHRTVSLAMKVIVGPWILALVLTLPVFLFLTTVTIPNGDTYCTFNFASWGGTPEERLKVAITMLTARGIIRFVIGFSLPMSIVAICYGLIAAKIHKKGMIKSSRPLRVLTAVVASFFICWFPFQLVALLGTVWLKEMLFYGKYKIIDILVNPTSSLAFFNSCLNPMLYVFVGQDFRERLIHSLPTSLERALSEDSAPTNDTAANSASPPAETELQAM

[2] = Cytotoxicity, CellTiter-Glo, THP1-Blue cells; assay type: cell-based, human; conditions: human, THP1-Blue cells; N.T. = no cytotoxicity at 50 µM; read-out: Cytotoxicity IC50 in THP1-Blue Cells
Experimental: as §1
(§2) The cytotoxicity was analyzed with a CellTiter-Glo Luminescent Cell Viability Assay Kit from Promega (Madison, WI, USA), according to the manufacturer’s protocol. The luminescent ATP assays are based on a luciferase enzymatic reaction which uses ATP from viable cells to generate photons. For this assay, the cells were incubated with the compounds under investigation for 24 h. After treatment, the cells were equilibrated to room temperature for 30 min, luciferase + luciferin substrate was added, and the samples were analyzed with a Fluoroscan Ascent FL (Thermo Fisher Scientific, Waltham, MA, USA). The IC50 values were calculated by plotting the percentage inhibition against the logarithm of the inhibitor concentration (at least five points).

[3] = tested on: LPS-induced IL-6 production in MonoMac-6 cells; assay: Inhibition of LPS-induced IL-6 production in MonoMac-6 cells (ELISA); assay type: cell-based, human; conditions: for IC50: Homo sapiens, MONO-MAC-6, read-out: Inhibition of IL-6 Production IC50 in MonoMac-6 Cells
Experimental: as §1
A human IL-6 ELISA kit (BD Biosciences, San Jose, CA, USA) was used to measure IL-6 production. […] The cells were pretreated with the test compound or DMSO for 30 min, followed by addition of 250 ng/mL LPS for 24 h. The IC50 values for IL-6 production were calculated by plotting the percentage inhibition against the logarithm of the inhibitor concentration (at least five points).

[4] = Cytotoxicity, CellTiter-Glo, MonoMac-6 cells; assay type: cell-based, human; conditions: human, MonoMac-6 cells
Experimental: as §1, §2

| Compound | IC50 ([1]; Homo sapiens) | IC50 [3] | Inhibition of LPS-induced NF-κB activity (in words) [1] | EC50 (FPR1) | EC50 (FPR2) | IC50 at 24 h [2] | Observed class for inhibition of NF-κB activity [1] | Inhibition of LPS-induced IL-6 production (in words) ([3]; MonoMac-6 cells, 250 ng/mL LPS, 24 h) | IC50 at 24 h [4] | IC50 [1] |
| --- | --- | --- | --- | --- | --- | --- | --- | --- | --- | --- |
| COc1cccc(Cc2cc(C)nn(CC(=O)Nc3ccc(Br)cc3)c2=O)c1 [Compound 1] | – | – | inactive | – | – | – | – | – | – | – |
| Cc1ccc(-n2ccc(=O)n(CC(=O)Nc3ccc(Br)cc3)c2=O)cc1 [Compound 149] | 43 ± 3.9 µM | – | – | 13.6 µM | 14.9 µM | > 50 µM | Active | – | – | – |
| COc1ccc(N(c2ccc(OC)cc2)c2cc(C)nn(CC(=O)Nc3ccc(Br)cc3)c2=O)cc1 [Compound 50] | 32.8 ± 0.7 µM | – | – | > 50 µM | > 50 µM | > 50 µM | Active | – | – | – |
| CC(C)c1c(NC(=O)Nc2ccc(Cl)cc2)c(=O)n(-c2ccccc2)n1C [Cmpd43, N-(4-chlorophenyl)-N′-(5-isopropyl-1-methyl-3-oxo-2-phenyl-2,3-dihydro-1H-pyrazol-4-yl)urea, reference compound] | – | – | did not inhibit | – | – | > 50 µM | – | – | – | > 50 µM |
| COc1cccc(-c2cc(C#N)c(=O)n(CC(=O)Nc3ccc(Br)cc3)c2C)c1 [Compound 141] | 15.3 ± 4.9 µM | 24.5 ± 0.8 µM | – | – | – | > 50 µM | Active | – | > 50 µM | – |
| COc1cccc(Cn2cc(CC(=O)Nc3ccc(Br)cc3)c3ccccc32)c1 [Compound 134] | – | – | inactive | – | – | – | – | – | – | – |
| CCC(C)(C(=O)Nc1ccc(Br)cc1)n1nc(C)cc(Cc2cccc(OC)c2)c1=O (centres unmarked) [Compound 90] | 39.2 ± 6.7 µM | – | – | 1.5 µM | 2.1 µM | > 50 µM | – | – | – | – |
| COc1ccc(Nc2c(C#N)cnn2CC(=O)Nc2ccc(Br)cc2)cc1 [Compound 156] | 25 ± 0.4 µM | – | – | > 50 µM | > 50 µM | > 50 µM | Active | – | – | – |
| CCC(C(=O)Nc1ccc(Br)cc1)n1nc(C)cc(Cc2cccc(OC)c2)c1=O (centres unmarked) [Compound 88] | 39.4 ± 4.2 µM | – | – | 1.3 µM | 2.2 µM | > 50 µM | – | – | – | – |

Second part, led by results:

| IC50 ([1]; Homo sapiens) | IC50 [3] | Compound | Inhibition of LPS-induced NF-κB activity (in words) [1] | EC50 (FPR1) | EC50 (FPR2) | IC50 at 24 h [2] | Observed class for inhibition of NF-κB activity [1] | Inhibition of LPS-induced IL-6 production (in words) ([3]; MonoMac-6 cells, 250 ng/mL LPS, 24 h) | IC50 at 24 h [4] | IC50 [1] |
| --- | --- | --- | --- | --- | --- | --- | --- | --- | --- | --- |
| 44.5 ± 2.5 µM | 30.7 ± 3.6 µM | COc1cccc(Cc2cc(C)nn(CC(=O)Nc3cccc(Br)c3)c2=O)c1 [Compound 2] | – | – | – | > 50 µM | Active | inhibitors of IL-6 production | > 50 µM | – |
| 37 ± 0.4 µM | – | COc1cccc(Cc2cc(C)nn(CCNC(=O)Nc3ccc(Br)cc3)c2=O)c1 [Compound 113] | – | – | – | > 50 µM | Active | – | – | – |
| 7.1 ± 2 µM | 13.1 ± 0.3 µM | Cc1cc(Cc2cccc(Cl)c2)c(=O)n(CC(=O)Nc2ccc(I)cc2)n1 [Compound 23] | – | – | – | > 50 µM | Active | – | > 50 µM | – |
| 28.4 ± 5.7 µM | – | Cc1cc(Cc2ccccc2)c(=O)n(CC(=O)Nc2ccc(Br)cc2)n1 [Compound 30] | – | – | – | > 50 µM | Active | – | – | – |
| 27.9 ± 2.1 µM | – | Cc1cc(Cc2cccc(F)c2)c(=O)n(CC(=O)Nc2ccc(Br)cc2)n1 [Compound 64] | – | – | – | > 50 µM | Active | – | – | – |

Reference: article PMC9229294, “Pyridazinones and Structurally Related Derivatives with Anti-Inflammatory Activity” (Molecules, 2022)
